# Source: the Kinase Knowledgebase extract (Sharma et al. 2016)
# Target: PIK3CG (human) (UniProt P48736)
# Test: Inhibition of PIK3CG Kinase Activity
# PIK3CG (human), sequence (P48736 whole entry, looked up): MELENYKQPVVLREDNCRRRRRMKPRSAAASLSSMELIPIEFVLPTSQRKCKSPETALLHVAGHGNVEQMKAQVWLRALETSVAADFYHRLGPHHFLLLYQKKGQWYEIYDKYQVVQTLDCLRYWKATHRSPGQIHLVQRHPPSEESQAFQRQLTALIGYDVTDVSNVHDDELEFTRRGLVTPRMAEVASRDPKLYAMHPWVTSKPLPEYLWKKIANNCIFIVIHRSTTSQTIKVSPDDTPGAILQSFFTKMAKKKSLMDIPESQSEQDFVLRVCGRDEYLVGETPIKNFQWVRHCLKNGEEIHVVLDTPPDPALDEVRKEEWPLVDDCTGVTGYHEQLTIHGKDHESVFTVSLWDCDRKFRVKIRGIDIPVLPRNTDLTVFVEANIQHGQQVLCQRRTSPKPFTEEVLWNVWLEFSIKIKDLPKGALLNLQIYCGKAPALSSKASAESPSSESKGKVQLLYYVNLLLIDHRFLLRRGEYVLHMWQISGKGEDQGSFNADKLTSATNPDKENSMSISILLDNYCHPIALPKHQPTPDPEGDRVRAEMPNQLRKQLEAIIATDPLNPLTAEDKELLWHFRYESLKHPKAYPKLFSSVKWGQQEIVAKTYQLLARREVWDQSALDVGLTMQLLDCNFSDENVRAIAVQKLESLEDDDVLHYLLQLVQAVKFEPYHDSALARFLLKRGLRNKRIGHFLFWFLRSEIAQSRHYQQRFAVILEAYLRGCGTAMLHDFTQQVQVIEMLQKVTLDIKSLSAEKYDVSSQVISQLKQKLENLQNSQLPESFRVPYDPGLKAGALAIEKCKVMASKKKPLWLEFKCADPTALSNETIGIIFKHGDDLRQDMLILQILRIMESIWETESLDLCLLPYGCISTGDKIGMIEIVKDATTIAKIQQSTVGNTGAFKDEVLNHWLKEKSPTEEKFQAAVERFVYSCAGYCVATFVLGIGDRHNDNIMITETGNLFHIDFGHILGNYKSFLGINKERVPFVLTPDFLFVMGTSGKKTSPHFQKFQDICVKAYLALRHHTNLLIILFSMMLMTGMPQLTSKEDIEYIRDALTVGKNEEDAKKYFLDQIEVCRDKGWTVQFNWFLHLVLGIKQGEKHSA
row,Ki [nM],Structure (SMILES)
1,< 100,COc1cc(-c2ccc3c(n2)[C@H](C)N(c2ccn(C[C@H](C)O)n2)C3=O)cnc1OC
2,< 100,Cc1cc(-c2cncc(C(=O)O)c2)nc2c1C(=O)N(c1ccn([C@H]3CCOC3)n1)C2
3,< 100,CC[C@@]1(OC)c2nc(-c3cnc(OC)c(OC)c3)cc(C)c2C(=O)N1c1cnn(CC(F)(F)F)c1
4,< 100,COc1cc(-c2cc(C)c3c(n2)CN(c2cn[nH]c2)C3=O)cnc1OC
5,< 100,COc1cncc(-c2cc(C)c3c(n2)[C@H](C)N(c2ccn(C)n2)C3=O)c1
6,< 100,CCC1c2nc(-c3cncc(OC(F)F)c3)cc(C)c2C(=O)N1c1cnn(CC(F)(F)F)c1 (stereo not drawn)
7,< 100,COc1cc(-c2ccc3c(n2)[C@H](C)N(c2ccn(CC(F)(F)F)n2)C3=O)cnc1OC
8,< 100,COc1cc(-c2cc(C)c3c(n2)CN(c2cc(C)n(Cc4ccccn4)n2)C3=O)cnc1OC
9,< 100,COc1cc(-c2ccc3c(n2)CN(c2cnn(CCn4cncn4)c2)C3=O)cnc1OC
10,< 100,COc1cc(-c2ccc3c(n2)C2(CCOCC2)N(c2cnn(CC(F)(F)F)c2)C3=O)cnc1OC
11,< 100,COc1cc(-c2ccc3c(n2)C(C)(C)N(c2cnn(CC(F)(F)F)c2)C3=O)cnc1OC
12,< 100,CCn1ccc(N2C(=O)c3ccc(-c4cnc(OC)c(OC)c4)nc3C2C)n1 (stereo not drawn)
13,100 to 490,COc1cc(-c2ccc3c(c2)CN(c2cscn2)C3=O)cnc1OC
14,< 100,Cc1cc(-c2cncc(O)c2)nc2c1C(=O)N(c1cnn(CC(F)(F)F)c1)C2
15,< 100,COc1cc(-c2ccc3c(n2)CN(c2ccc(OCC4OCCO4)nc2)C3=O)cnc1OC
16,< 100,COc1cc(-c2cc(C)c3c(n2)CN(c2ccn(C(C)(C)C#N)n2)C3=O)cnc1OC
17,< 100,COc1ncc(-c2cc(C)c3c(n2)CN(c2cnn(C(C)(C)C#N)c2)C3=O)cc1OCC1CC1
18,< 100,CCn1cc(N2C(=O)c3ccc(-c4cnc(OC)c(OC)c4)nc3C2C)cn1 (stereo not drawn)
19,< 100,Cc1cc(-c2ccc(Cl)c(O)c2)nc2c1C(=O)N(c1cnn(CC(F)(F)F)c1)C2

row,Ki [nM],Structure (SMILES)
1,< 100,COc1cc(-c2ccc3c(n2)CN(c2cnn(Cc4cccc5c4OCCCO5)c2)C3=O)cnc1OC
2,< 100,COCCOCCOc1ncc(-c2cc(C)c3c(n2)C(C)N(c2cnn(CC(F)(F)F)c2)C3=O)cc1OC (stereo not drawn)
3,< 100,COc1cc(-c2ccc3c(n2)CN(c2cccc(C(C)(C)C#N)n2)C3=O)cnc1OC
4,< 100,COCCOCn1cc(N2C(=O)c3ccc(-c4cnc(OC)c(OC)c4)nc3[C@H]2C)cn1
5,< 100,COc1cc(-c2ccc3c(n2)CN(c2cnn(CC(C)C)c2)C3=O)cnc1OC
6,< 100,Cc1cc(-c2cncc(OCC(F)F)c2)nc2c1C(=O)N(c1cnn(CC(F)F)c1)C2C (stereo not drawn)
7,< 100,Cc1cc(-c2cncc(CO)c2)nc2c1C(=O)N(c1cnn(CC(F)(F)F)c1)C2
8,100 to 490,COc1cc(-c2ccc3c(n2)CN(c2cnn(CCn4cccn4)c2)C3=O)cnc1OC
9,100 to 490,CCCCn1cc(N2Cc3cc(-c4cnc(OC)c(OC)c4)ccc3C2=O)cn1
10,< 100,CCOc1ncc(-c2ccc3c(n2)C(C)N(c2cnn(CC(F)(F)F)c2)C3=O)cc1OC (stereo not drawn)
11,< 100,COc1cc(-c2cc(C)c3c(n2)CN(c2ccn([C@H]4CCOC4)n2)C3=O)cnc1F
12,< 100,COc1cc(-c2ccc3c(n2)[C@@H](C)N(c2cc[nH]n2)C3=O)cnc1OC
13,< 100,CCn1cc(N2C(=O)c3ccc(-c4cnc(OC)c(OC(F)F)c4)nc3[C@H]2C)cn1
14,< 100,COc1ncc(-c2cc(C)c3c(n2)C(C)(C)N(c2cnn(CC(F)(F)F)c2)C3=O)cc1C(=O)NC[C@@H](O)CO
15,< 100,CCc1cc(-c2cnc(OC)c(OC)c2)nc2c1C(=O)N(c1cn[nH]c1)C2(C)C
16,100 to 490,CCNC(=O)c1cncc(-c2cc(C)c3c(n2)CN(c2ccn([C@H]4CCOC4)n2)C3=O)c1
17,100 to 490,COc1cncc(-c2cc(C)c3c(n2)C(C)(C)N(c2cc[nH]n2)C3=O)c1
18,< 100,CCOC1c2nc(-c3cnc(OC)c(OC)c3)cc(C)c2C(=O)N1c1cnn(CC(F)(F)F)c1 (stereo not drawn)
19,< 100,Cc1cc(-c2cncc(OC(F)F)c2)nc2c1C(=O)N(c1cn[nH]c1)C2(C)C
